Experimental data published in PubChem BioAssay (NCI).
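Test compounds were applied to cells in 96-well plates for 48 hours at 5 doses. Definition used: TGI = concentration required for complete inhibition of growth.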

Tests used:
Experiment in all cases: NCI-60 cell line screen, 48 h
[1] = tested on: EKVX NSCLC
[2] = tested on: RXF 393 renal
[3] = tested on: NCI/ADR-RES ovarian
[4] = tested on: TK-10 renal
[5] = tested on: SNB-75 CNS
[6] = tested on: CAKI-1 renal
[7] = tested on: SK-MEL-2 melanoma
[8] = tested on: HT29 colon
[9] = tested on: K-562 leukemia
[10] = tested on: SF-268 CNS
[11] = tested on: UACC-257 melanoma
[12] = tested on: SW-620 colon
[13] = tested on: HL-60(TB) leukemia
[14] = tested on: IGROV1 ovarian
[15] = tested on: MDA-MB-435
[16] = tested on: U251 CNS
[17] = tested on: HCT-116 colon
[18] = tested on: NCI-H226 lung
[19] = tested on: MCF7 breast
[20] = tested on: SK-MEL-28 melanoma
[21] = tested on: OVCAR-5 ovarian
[22] = tested on: UACC-62 melanoma
[23] = tested on: T-47D breast
[24] = tested on: OVCAR-8 ovarian
[25] = tested on: DU-145 prostate
[26] = tested on: BT-549 breast
[27] = tested on: SN12C renal
[28] = tested on: RPMI-8226 leukemia
[29] = tested on: MALME-3M melanoma
[30] = tested on: NCI-H23 lung
[31] = tested on: COLO 205 colon
[32] = tested on: SK-OV-3 ovarian
[33] = tested on: NCI-H522 lung
[34] = tested on: 786-0 renal
[35] = tested on: OVCAR-3 ovarian
[36] = tested on: HOP-62 NSCLC
[37] = tested on: PC-3 prostate
[38] = tested on: HCT-15 colon
[39] = tested on: NCI-H460 lung
[40] = tested on: M14 melanoma
[41] = tested on: KM12 colon
[42] = tested on: MDA-MB-231 breast
[43] = tested on: A549 NSCLC
[44] = tested on: UO-31 renal
[45] = tested on: LOX IMVI melanoma
[46] = tested on: SNB-19 CNS
[47] = tested on: MOLT-4 leukemia
[48] = tested on: SF-539 CNS
[49] = tested on: HS 578T breast
[50] = tested on: CCRF-CEM leukemia
[51] = tested on: SR leukemia
[52] = tested on: ACHN renal
[53] = tested on: OVCAR-4 ovarian
[54] = tested on: SF-295 CNS
[55] = tested on: HCC-2998 colon

Question: For O=C(C(Cl)Cl)N(O)c1ccccc1OCc1ccccc1, which TGI [1] is on record?
Answer: 48.8 µM

Question: What about the TGI [2] of the same compound?
Answer: > 100 µM

Question: And the TGI [3]?
Answer: > 100 µM

Question: And the TGI [4]?
Answer: > 100 µM

Question: What about the TGI [5] of the same compound?
Answer: > 100 µM

Question: And the TGI [6]?
Answer: > 100 µM

Question: What about the TGI [7] of the same compound?
Answer: > 100 µM

Question: What about the TGI [8] of the same compound?
Answer: > 100 µM

Question: And the TGI [9]?
Answer: > 100 µM

Question: What about the TGI [10] of the same compound?
Answer: > 100 µM

Question: And the TGI [11]?
Answer: 63.9 µM

Question: What about the TGI [12] of the same compound?
Answer: 68.1 µM

Question: And the TGI [13]?
Answer: > 100 µM

Question: And the TGI [14]?
Answer: > 100 µM

Question: And the TGI [15]?
Answer: > 100 µM

Question: What about the TGI [16] of the same compound?
Answer: > 100 µM

Question: And the TGI [17]?
Answer: > 100 µM

Question: What about the TGI [18] of the same compound?
Answer: > 100 µM

Question: What about the TGI [19] of the same compound?
Answer: > 100 µM

Question: What about the TGI [20] of the same compound?
Answer: > 100 µM

Question: And the TGI [21]?
Answer: > 100 µM

Question: And the TGI [22]?
Answer: 92.2 µM

Question: And the TGI [23]?
Answer: 51.8 µM

Question: And the TGI [24]?
Answer: 63.5 µM

Question: And the TGI [25]?
Answer: 45.5 µM

Question: And the TGI [26]?
Answer: 1.43 µM

Question: And the TGI [27]?
Answer: > 100 µM

Question: What about the TGI [28] of the same compound?
Answer: 69.2 µM

Question: What about the TGI [29] of the same compound?
Answer: > 100 µM

Question: What about the TGI [30] of the same compound?
Answer: > 100 µM

Question: And the TGI [31]?
Answer: 68 µM

Question: And the TGI [32]?
Answer: > 100 µM

Question: And the TGI [33]?
Answer: 82.4 µM

Question: What about the TGI [34] of the same compound?
Answer: > 100 µM

Question: What about the TGI [35] of the same compound?
Answer: > 100 µM

Question: And the TGI [36]?
Answer: > 100 µM

Question: And the TGI [37]?
Answer: > 100 µM

Question: And the TGI [38]?
Answer: > 100 µM

Question: What about the TGI [39] of the same compound?
Answer: > 100 µM

Question: And the TGI [40]?
Answer: > 100 µM

Question: What about the TGI [41] of the same compound?
Answer: > 100 µM

Question: What about the TGI [42] of the same compound?
Answer: > 100 µM

Question: And the TGI [43]?
Answer: > 100 µM

Question: What about the TGI [44] of the same compound?
Answer: > 100 µM

Question: What about the TGI [45] of the same compound?
Answer: > 100 µM

Question: And the TGI [46]?
Answer: > 100 µM

Question: And the TGI [47]?
Answer: > 100 µM

Question: And the TGI [48]?
Answer: > 100 µM

Question: What about the TGI [49] of the same compound?
Answer: 61.7 µM

Question: What about the TGI [50] of the same compound?
Answer: 39 µM

Question: And the TGI [51]?
Answer: > 100 µM

Question: And the TGI [52]?
Answer: > 100 µM

Question: And the TGI [53]?
Answer: 78.9 µM

Question: What about the TGI [54] of the same compound?
Answer: > 100 µM

Question: What about the TGI [55] of the same compound?
Answer: 6.89 µM
